According to paper PMC9748900, “Unconventional isoquinoline-based SERMs elicit fulvestrant-like transcriptional programs in ER+ breast cancer cells” (NPJ Breast Cancer, 2022):
Entries after “also recorded” stand apart in the source; their conditions may differ.

What was measured:
[1] = test system: gene expression in MCF7:WS8 breast cancer cells; assay: qPCR gene expression in MCF7:WS8 cells
[2] = test system: SUMO1; assay: SUMO1 immunofluorescence in T47D cells; format: cell-based; settings: 1 µM, 16 h
Experimental: Immunofluorescence was used to study the effects of these treatments on SUMO1 protein expression in these cells. […] Cellular localization was resolved using phalloidin to stain actin and DAPI to stain nuclei. […] Further studies are needed to decipher the role and estrogen dependence of SUMO1 in ER + breast cancer pathology.
T47D cells were cultured on coverslips for 24 h followed by 48 h growth in serum starved media. […] Cells were fixed for 10 min with 4% paraformaldehyde at room temperature was followed by three washes with ice-cold PBS-T (0.1% Tween 20, PBS) and 10 min of permeabilization with 0.5% saponin in PBS. Blocking was performed with 1% bovine serum albumin (BSA) in PBS-T for 30 min. Cells were incubated in a humidified chamber with 1:500 rabbit monoclonal anti-SUMO1 antibody (Abcam Ltd, Cambridge, UK, ab32058) in 1% BSA for 1 h at room temperature. Cells were washed 3 times with PBS-T, then incubated in the dark for 1 h with 1:1000 goat anti-rabbit IgG H&L (Alexa Fluor® 488) antibody (Abcam Ltd, ab150077) as well as 1:1000 phalloidin-iFluor 594 reagent (Abcam Ltd, ab176757) in 1% BSA. […] Quantification of nuclear fluorescent signal was performed using ImageJ 1.53t software. Fluorescent intensity of all nuclei within captured frames were measured and normalized by subtracting mean background fluorescence of 5 representative areas.

[3] = test system: transcriptome of T47D breast cancer cells; assay: RNA sequencing of T47D cells; format: cell-based
Experimental: We next used RNA transcriptomic analysis (RNAseq) to identify differentially affected genes. […] All sequencing runs were performed with three replicates per treatment.
T47D breast cancer cells were grown in 6-well dishes at 50,000 cells per well. […] After 24 h, they were placed in serum-starved media for 48 h. […] RNA was isolated using a Qiagen RNeasy Kit then sent to Novogene for sequencing and bioinformatics analysis.

[4] = test system: Ishikawa endometrial cells; assay: Alkaline phosphatase (AP) assay in Ishikawa cells; format: cell-based, human; settings: 1 nM E2 or 1 μM compound, 72 h, absorbance at 405 nm, mean + std. dev., n = 3-9
Source text: SERM enhancement of ERα accumulation in breast cancer cells correlates with uterotrophic activities[22],[30]. Despite the inclusion of side arms from known SERDs, most T6Is appeared SERM-like in breast cancer cells as they increased ERα levels. To measure the SERM-agonist activities of the T6Is, we employed an AP activity assay in Ishikawa endometrial cells[22],[32],[40]. […] Many T6Is show unexpected AP activities in these cells. […] Therefore, we would expect these SERMs to show a greater induction of AP (Supplementary Fig. 5). […] This difference was significant (p = 0.004) compared to 4OHT, which measured 0.68 ± 0.12 absorbance units. In most studies of SERM-agonist activities, AP assays are combined with increases in uterine wet-weight in vivo[22],[41],[42].
AP assays were performed as described. Briefly, 15,000 Ishikawa cells were seeded into 96-well plates then placed in serum-starved medium for 48–72 h. Cells were treated for three days with veh, hormone, SERM, or SERD. The media was aspirated and the cells were frozen at −80 °C for at least 24 h. Cells were thawed then incubated with p-nitrophenyl phosphate (ThermoFisher) chromogenic AP substrate. After 60 min at 40 °C, absorbance was read at 405 nm on a BioTek Cytation 5 plate reader.

[5] = test system: gene expression in T47D breast cancer cells; assay: qPCR gene expression in T47D cells; format: cell-based; settings: 1 μM + 1 nM E2, 16 h
[6] = test system: MCF7 breast cancer cells; assay: Crystal violet cellular viability assay; format: cell-based; settings: MCF7, 1 to 1000 nM, 1 nM E2, 7 days
Experimental: (§1) In addition, we used a crystal violet assay to measure the effect of T6I-14-1 on MCF7 viability.
MCF7 breast cancer cells were placed in 24-well dishes at 15,000 cells per well. After 24 h, they were placed in serum-starved media for 48 to 72 h. […] After treatment, cells were stained with 0.4% crystal violet in 50% methanol for 30 min. Cells were washed with PBS to remove excess dye. 500 µL of methanol was then added to each well to dissolve the dye and placed on a rocker for 30 min at room temperature and the absorbance at 570 was recorded.

[7] = test system: T47D breast cancer cells; assay: Cellular proliferation (label-free cell count), T47D; format: cell-based; settings: 0.1 and 1 μM, 1 nM E2
Experimental: as §1
MCF7, MCF7:WS:8, Y537S ESR1 MCF7 and T47D breast cancer cell lines were grown in 96-well dishes at a starting cell count of 1000 cells per well. […] Cells were grown in a BioSpa attached to a BioTek Cytation 5 and were automatically counted every twelve hours for 7–10 days or until the E2-only wells reached confluence. Media was replaced every 4 days and drug was maintained in each media change. Each study was repeated three times with three technical replicates each.

[8] = target: T1, ERα (Homo sapiens, UniProt P03372); assay: In-cell Western of ERα levels in T47D cells; format: cell-based; design: In-cell Western of endogenous ERα levels normalized to cell count in T47D breast cancer cells; endogenous in cells; host or cells: T47D breast cancer cells; settings: 1 μM
T1 sequence (P03372 1-595): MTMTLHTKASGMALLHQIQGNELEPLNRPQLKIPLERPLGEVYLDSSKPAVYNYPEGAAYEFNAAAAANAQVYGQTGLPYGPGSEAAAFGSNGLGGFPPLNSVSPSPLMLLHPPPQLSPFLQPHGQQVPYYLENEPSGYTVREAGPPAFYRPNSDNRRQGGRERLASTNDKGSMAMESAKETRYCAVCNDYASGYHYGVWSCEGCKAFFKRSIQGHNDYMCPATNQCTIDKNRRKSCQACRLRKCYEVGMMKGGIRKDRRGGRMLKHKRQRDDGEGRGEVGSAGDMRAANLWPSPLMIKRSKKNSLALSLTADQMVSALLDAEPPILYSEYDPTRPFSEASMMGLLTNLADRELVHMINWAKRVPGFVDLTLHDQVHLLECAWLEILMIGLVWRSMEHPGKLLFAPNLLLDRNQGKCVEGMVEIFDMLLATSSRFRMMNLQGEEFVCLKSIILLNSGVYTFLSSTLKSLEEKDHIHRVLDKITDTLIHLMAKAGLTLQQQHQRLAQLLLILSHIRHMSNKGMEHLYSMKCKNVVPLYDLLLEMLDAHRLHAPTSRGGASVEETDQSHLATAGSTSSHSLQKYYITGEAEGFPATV
Experimental: An in-cell Western assay was used to measure the effect of the purified T6I-29 enantiomers on the accumulation of ERα in T47D breast cancer cells at 1 μM dose.
In-cell Western analysis was performed in a similar manner as previously described. Briefly, T47D or MCF7:WS8 breast cancer cells were grown in blackout 96-well plates starting at 3000 cells per well. After 24 h, cells were placed in serum-starved media and allowed to acclimate for 48–72 h. Cells were treated with hormone, SERM, or SERD alongside vehicle control for 24 h. Only interior wells were used to avoid edge effects. Cells were fixed with 4% formaldehyde and permeabilized with 0.1% Triton X-100. Plates were blocked with Intercept blocking buffer (LI-COR). Santa Cruz F10 anti-ERα antibody (sc-8002) was used as the primary at 1:200-500 dilution. Secondary antibody was a goat anti-mouse IgG 800 IRDye antibody (926-32210) from LI-COR. Cells were also treated with CellTag700 (926-41090) to control for differences in cell count between wells. All data were collected on a LI-COR Odyssey DLx and analyzed using Emperia Studio. Each experiment was comprised of three replicates.

[9] = target: T2, ERα-SRC3 binding (Homo sapiens, UniProt P03372); assay: NanoBiT ERα-SRC3 assay in HEK293T cells; format: cell-based; settings: 1 μM antagonist + 1 nM E2, 4 h
T2 construct: expressed in transfected cells; host or cells: HEK293T, transient co-transfection of pcDNA3.1 plasmids (gift of D. P. McDonnell)
T2 sequence (P03372 1-595): T1 sequence (P03372 1-595)
Experimental: SERMs and SERDs favor an ERα LBD protein conformation that occludes transcriptional coactivator binding. We used nanoBiT to study how the first set of T6I molecules inhibited ERα and steroid receptor coactivator-3 (SRC3) binding in HEK293T cells. […] Plasmids for smBiT-ERα and lgBiT-SRC3 were kindly donated by Dr. Donald P. McDonnell. Plasmids were co-transfected into HEK293T cells and placed in serum-starved medium for 48 h.
HEK293T cells were grown in 96-well clear bottom, white-walled plates to around 70% confluence. PCDNA 3.1 plasmids containing N-terminally tagged smBiT ERα or lgBiT SRC3 nuclear recognition domain (NRD) were kindly donated by Dr. Donald P. McDonnell. These plasmids were co-transfected with a total of 0.1 µg smBiT ERα and 0.1 µg LgBiT SRC3 NRD using Turbofectin 8.0 at a 3:1 ratio. After 24 h cells were placed in serum-starved media and allowed to acclimate for an additional 48–72 h. […] Data shown are the average of three independent replicates.

[10] = target: T1, ERα; assay: ERE transcriptional reporter gene assay in MCF7 cells; format: cell-based; design: endogenous in cells; host or cells: MCF7 cells with 3x-ERE-GFP reporter; settings: MCF7, 1 nM E2
Experimental: A cyclopropyl group was used in place of RAD1901’s ethylamine. […] We initially synthesized 4 derivatives comprised of different pharmacophores on the analogous steroidal A ring (Fig. 2d) and used an ERE reporter gene assay in MCF7 breast cancer cells to measure their transcriptional inhibitory activities.
This assay was performed in accordance with a previous report. MCF7 breast cancer cells with a 3x-estrogen response element-green fluorescent protein (GFP) reporter gene construct under a CMV promoter were plated in 96-well dishes at 3000 cells per well. Cells were cultured for 48 h in stripped media that included charcoal stripped fetal bovine serum (FBS). Cells were treated with increasing concentrations of antiestrogen (5 pm to 1 µM) for 24 h. Subsequently, percent GFP-positive cells were imaged using a BioTek Cytation 5 live cell imager. All assays were performed three times with three technical replicates each.

[11] = target: T3, halo-ERα (Homo sapiens, UniProt P03372); assay: Live-cell halo-ERα accumulation assay in T47D cells; format: cell-based; settings: 1 μM, 24 h
T3 construct: expressed in transfected cells; host or cells: T47D cells, doxycycline-inducible halo-ERα
T3 sequence (P03372 1-595): T1 sequence (P03372 1-595)
Source text: SERMs and SERDs differentially affect ERα cellular lifetime/accumulation, which correlates with tissue-specific partial agonistic activities. SERMs increase WT ERα lifetime and are partial agonists in the bone and uterine epithelium by maintaining AF-1-dependent transcriptional coactivator recruitment. SERDs induce rapid WT ERα degradation and are pure antagonists[14],[17],[19],[22],[33]. […] We used an in-cell Western approach to measure how a subset of T6Is affected ERα levels in MCF7:WS8 breast cancer cells. […] A live cell halo-tagged ERα assay was then used to measure the impact of an expanded set of T6Is on receptor accumulation in T47D breast cancer cells after 24 h treatment. […] The difference between T6I-14 and 4OHT was not statistically significant in this assay. […] The IC50 values generally trended with observed differences in transcriptional IC50 (Fig. 2), while the effect at maximum dose varied greatly.
This assay was performed in accordance with a previous report. T47D breast cancer cells with a halo-ERα under a doxycycline (dox) control were grown in 96-well dishes starting at 3000 cells per well. Cells were placed in serum-starved media for 48–72 h then simultaneously treated with 1 µg/mL dox, and 1 µM Halo-TMR direct (Promega, G2991) alongside 5 pm to 1 µM compound for 24 h. […]

Compound | CDK1 mRNA ([1]; MCF7:WS8) | E2F1, CDK1 and SUMO1 mRNA ([1]; MCF7:WS8, compared with T47D) | SUMO1 protein expression (immunofluorescence) [2] | SUMO-related differentially expressed genes (RNAseq) [3] | Reactome pathways relating to SUMO E3 ligases ([3]; 1 μM + 1 nM E2) | AP1 Induction [4] | E2F1 mRNA [5] | cellular viability (crystal violet) [6] | cell count after 7 days (fold-change normalized to vehicle) [7] | ERα levels by in-cell Western [8] | inhibition of ERα-SRC3 binding (luminescence) [9] | anti-transcriptional activity (in words) [10] | halo-ERα accumulation at maximum dose [11]
C[C@]12CC[C@@H]3c4ccc(O)cc4C[C@@H](CCCCCCCCC[S+]([O-])CCCC(F)(F)C(F)(F)F)[C@H]3[C@@H]1CC[C@@H]2O (stereo partly shown) [ICI, fulvestrant] | downregulated its expression | greater downregulation of E2F1 and CDK1 and upregulation of SUMO1 | enriched SUMO1 expression in the nuclei | upregulated SUMO1 and downregulated the SENP enzymes | significantly enriched | 0.25 + 0.08 | reduced impact |  |  |  |  |  | 
CCCN1CCC(COc2ccc(C3c4ccc(O)cc4CC4(CC4)N3C(=O)c3ccccc3)cc2)C1 (stereo not shown) [T6I-14-1] |  |  |  |  |  | 0.55 + 0.09 |  | reduced MCF7 cellular viability across all doses compared to 4OHT and ICI | significantly more effective (p = 0.01) than ICI | enhanced ERα levels past 4OHT | among the most potent; also recorded: significant reduction compared to both 4OHT (p = 0.03) and E2 (p = 0.004) |  | 
CCN1CC(Oc2ccc(C3c4ccc(O)cc4CC4(CC4)N3C(=O)c3ccccc3)cc2)C1 (stereo not shown) [T6I-1] |  |  |  |  |  | 0.30 + 0.07 |  |  |  |  | the least | ineffective anti-transcriptional agent | SERD-like decrease to ERα levels; also recorded: weak ERα-degrading activities
